Legend:
Plasmodium falciparum = test: Antiplasmodial activity against chloroquine-resistant Plasmodium falciparum K1 infected in human erythrocytes assessed as reduction in parasitemia after 72 hrs by lactate dehydrogenase assay; type: functional, cell-based; settings: K1, 72 h
[1] = Cytotoxicity against human MRC5 cells assessed as decrease in cell viability after 7 days by MTT assay; type: toxicity, cell-based

| SMILES | IC50 (Plasmodium falciparum) [µM] | IC50 at 7 days [1] [µM] |
| --- | --- | --- |
| CCC(C)[C@H](NC(=O)[C@H](C(C)CC)N(C)C)C(=O)N[C@@H]1C(=O)N[C@@H](Cc2c[nH]cn2)C(=O)NCC(=O)c2ccc(cc2)O[C@H]1C(C)C (stereo partly drawn) | 27.9 | > 64 |
| CCC(C)[C@@H](C(=O)N[C@H](C(=O)N[C@@H]1C(=O)N[C@@H](Cc2c[nH]c3ccccc23)C(=O)NCC(=O)c2ccc(cc2)OC1(C)C)C(C)C)[N+](C)(C)[O-] (stereo partly drawn) | 12.2 | > 64 |
| CCC(C)[C@@H](C(=O)N[C@H](C(=O)N[C@@H]1C(=O)N[C@@H](Cc2c[nH]c3ccccc23)C(=O)NCC(O)c2ccc(cc2)OC1(C)C)C(C)C)N(C)C (stereo partly drawn) | 17.5 | > 64 |
| CCC(C)[C@@H](C(=O)N[C@H](C(=O)N[C@@H]1C(=O)N[C@@H](Cc2c[nH]c3ccccc23)C(=O)NCC(=O)c2ccc(cc2)OC1(C)C)C(C)C)N(C)C (stereo partly drawn) | 16.4 | 51.1 |
